Experimental data published in article PMC11446937, “Bacteria from the Amycolatopsis genus associated with a toxic bird secrete protective secondary metabolites” (Nature Communications, 2024).

What was measured:
[1] = test system: bacterial and fungal indicator strains; test: Disc-diffusion antimicrobial activity, indicator strains overall; type: cell-based; conditions: disc-diffusion assays of isolated compounds against indicator strains incl. K. rhizophila and C. albicans
Procedure: For more experimental details, see Supplementary Methods and Supplementary Tables 16–18.
Droplet-collapsing test of lipopetides.
Pure compounds were dissolved in water (final concentration 10 mM). Then, 20 µl of the solutions were placed on a hydrophobic surface (parafilm ‘M’). Tensioactive properties were determined by the observation of collapsed […]
33,34 Tween-20 (10 mM) was used as tensioactive positive control. For better visualization, 0.0025% crystal violet was added to the droplet, having no effect on the […]
Supplementary Figure 88. Droplet-collapsing assay testing the tensioactive properties of lipopeptides (n=3). […]
epidermidis DSM103867, as well as the skin pathogenic yeast C. albicans SC5314. […] Antimicrobial activity was determined by measuring the inhibition zone surrounding the disc in mm. […]
Pure compounds (1 mg/mL in DMSO or 50% MeOH) were tested for their antimicrobial activity against a variety of bacterial and fungal indicator strains: B. subtilis 6633 (Bs), S. aureus SG511 (Sa1), E. coli SG458 (Ec), P. aeruginosa K799/61 (Pa), S. aureus 134/94 (MRSA) (Sa2), E. faecalis 1528 (VRSA) (Ef), Mycobacterium vaccae 10670 (Mv), Sporobomyces salmonicolor 549 (Ss), C. albicans C.A. (Ca), and Penicillium notatum JP36 (Pn). […] Antimicrobial activity was determined by measuring the inhibition zone surrounding the disc in mm (n=3). […]

S. aureus SG511 = test: Disc-diffusion antimicrobial assay, clinically relevant indicator strains; conditions: Suppl. Table 17, 1 mg/mL in DMSO, 50 µl (50 µg) per disc, Cip 5 µg/mL (H2O/HCl), DMSO solvent control itself 11P, n=3
[2] = test system: Mycobacterium vaccae 10670; test: as above; conditions: Suppl. Table 17, 1 mg/mL in DMSO, 50 µl (50 µg) per disc, Cip 5 µg/mL (H2O/HCl), DMSO solvent control itself 11P, n=3
S. aureus 134/94 (MRSA) = test: as above; conditions: Suppl. Table 17, 1 mg/mL in DMSO, 50 µl (50 µg) per disc, Cip 5 µg/mL (H2O/HCl), DMSO solvent control 0, n=3
E. coli SG458 = test: as above; conditions: Suppl. Table 17, 1 mg/mL in DMSO, 50 µl (50 µg) per disc, Cip 5 µg/mL (H2O/HCl), DMSO solvent control itself 12P, n=3
B. subtilis 6633 = test: as above; conditions: Suppl. Table 17, 1 mg/mL in DMSO, 50 µl (50 µg) per disc, Cip 5 µg/mL (H2O/HCl), DMSO solvent control itself 12P, n=3
E. faecalis 1528 = test: as above; conditions: Suppl. Table 17, 1 mg/mL in DMSO, 50 µl (50 µg) per disc, Cip 5 µg/mL (H2O/HCl), DMSO solvent control itself 12p, n=3
C. albicans C.A. = test: as above; type: cell-based; conditions: Suppl. Table 17; disc diffusion; 1 mg/mL in DMSO, 50 µl (50 µg) per disc; Amph B 10 µg/mL (DMSO/H2O); DMSO solvent control 0; n=3
Procedure: (§1) Disc-diffusion antimicrobial activity assays against clinically relevant indicator strains.
(§2) Pure compounds (1 mg/mL in DMSO or 50% MeOH) were tested for their antimicrobial activity against a variety of bacterial and fungal indicator strains: B. subtilis 6633 (Bs), S. aureus SG511 (Sa1), E. coli SG458 (Ec), P. aeruginosa K799/61 (Pa), S. aureus 134/94 (MRSA) (Sa2), E. faecalis 1528 (VRSA) (Ef), Mycobacterium vaccae 10670 (Mv), Sporobomyces salmonicolor 549 (Ss), C. albicans C.A. (Ca), and Penicillium notatum JP36 (Pn). On each disc, 50 µl compound solution (50 µg) were applied. Antimicrobial activity was determined by measuring the inhibition zone surrounding the disc in mm (n=3).
(§3) Bs: B. subtilis 663, Sa1: S. aureus SG511, Ec: E. coli SG458, Pa: P. aeruginosa K799/61, Sa2: S. aureus 134/94 (MRSA), Ef: E. faecalis 1528 (VRSA), Mv: M. vaccae 10670, Ss: S. salmonicolor 549, Ca: C. albicans C.A., Pn: P. notatum JP36. P: colonies in the inhibition zone, p: single colonies in the inhibition zone. A: no to low inhibition, n.t.: not tested.
(§4) B. subtilis 663, Sa1: S. aureus SG511, Ec: E. coli SG458, Ca: C. albicans C.A., P: colonies in the inhibition zone, […]

Penicillium notatum JP36 = test: as above; type: cell-based; conditions: Suppl. Table 17, 1 mg/mL in DMSO, 50 µl (50 µg) per disc, Amph B 10 µg/mL (DMSO/H2O), DMSO solvent control itself 12P, n=3
Procedure: as §1, §2, §3, §4

[3] = test system: Sporobomyces salmonicolor 549; test: as above; type: cell-based; conditions: Suppl. Table 17, 1 mg/mL in DMSO, 50 µl (50 µg) per disc, Amph B 10 µg/mL (DMSO/H2O), DMSO solvent control itself 13P, n=3
Procedure: as §1, §2, §3, §4

P. aeruginosa K799/61 = conditions: Suppl. Table 17; disc diffusion; 1 mg/mL in DMSO, 50 µl (50 µg) per disc; Cip 5 µg/mL (H2O/HCl); DMSO solvent control itself 12P; n=3
ZIKV NS2B-NS3 = conditions: 200 µM
sortase A (SrtA) = conditions: 200 µM
DENV2 NS2B-NS3 = test: Fluorimetric protease inhibition assay; type: biochemical; conditions: 200 µM, 10 min, mean ± standard deviation, n=3
cathepsin L = test: Fluorimetric protease inhibition assay; type: biochemical; conditions: 200 µM, 10 min, mean ± standard deviation, n=3
SARS-CoV PLpro = conditions: 200 µM; fluorimetric, 10 min; mean ± standard deviation, n=3
P. monteilii DSM1388 = test: Disc-diffusion antimicrobial assay, ecologically relevant indicator strains; type: cell-based, Pseudomonas monteilii; conditions: Suppl. Table 16, pure compounds 10 mg/mL in DMSO, 5 µl per disc, control Cip 5 µg/mL (HCl), DMSO control 0, n=1
K. rhizophila DSM11926 = test: as above; type: cell-based, Kocuria rhizophila; conditions: Suppl. Table 16, pure compounds 10 mg/mL in DMSO, 5 µl per disc, control Cip 5 µg/mL (HCl), DMSO control 0, n=1
SARS-CoV2 Mpro = conditions: 200 µM; fluorimetric, 10 min; mean ± standard deviation, n=3
[4] = test system: B. thuringiensis DSM104061; test: Disc-diffusion antimicrobial assay, ecologically relevant indicator strains; type: cell-based, Bacillus thuringiensis; conditions: Suppl. Table 16, pure compounds 10 mg/mL in DMSO, 5 µl per disc, control Cip 5 µg/mL (HCl), DMSO control 0, n=1
cathepsin B = test: Fluorimetric protease inhibition assay; type: biochemical; conditions: 200 µM, 10 min, mean ± standard deviation, n=3
C. albicans SC5314 = test: Disc-diffusion antimicrobial assay, ecologically relevant indicator strains; type: cell-based, Candida albicans; conditions: Suppl. Table 16, pure compounds 10 mg/mL in DMSO, 5 µl per disc, control Amph B 10 µg/mL (DMSO/H2O), DMSO control 0, n=1
cruzain = test: Fluorimetric protease inhibition assay; type: biochemical, Trypanosoma cruzi; conditions: 200 µM, 10 min, mean ± standard deviation, n=3
B. licheniformis DSM13 = test: Disc-diffusion antimicrobial assay, ecologically relevant indicator strains; type: cell-based, Bacillus licheniformis; conditions: Suppl. Table 16, pure compounds 10 mg/mL in DMSO, 5 µl per disc, control Cip 5 µg/mL (HCl), DMSO control 0, n=1
rhodesain = conditions: 200 µM
urokinase (uPA) = test: Fluorimetric protease inhibition assay; type: biochemical; conditions: 200 µM, 10 min, mean ± standard deviation, n=3

## C[C@H]1CN2C(=O)/C=C/C=C/C=C/[C@@](C)(O)C(O[C@@H]3OC[C@@H](O)[C@H](O)[C@H]3N)\C=C/C=C/C=C/C=C\[C@@H]2[C@@H]1O (stereo partly shown) [Compound 8, ciromicin A, reference compound]
[1]
  antimicrobial activity (in words): antifungal and antibacterial effects

## Demiguisin [Compound 7]
[1]
  antimicrobial activity (in words): no antimicrobial effects
S. aureus SG511
  inhibition zone, Sa1: 0 mm
[2]
  inhibition zone, Mv: 0 mm
S. aureus 134/94 (MRSA)
  inhibition zone, Sa2: 0 mm
E. coli SG458
  inhibition zone, Ec: 0 mm
B. subtilis 6633
  inhibition zone, Bs: 0 mm
E. faecalis 1528
  inhibition zone, Ef: 0 mm
C. albicans C.A.
  inhibition zone, Ca: 0 mm
Penicillium notatum JP36
  inhibition zone, Pn: 0 mm
[3]
  inhibition zone, Ss: 0 mm
P. aeruginosa K799/61
  inhibition zone, Pa: 0 mm

## Pachycephalamide F [Compound 6]
ZIKV NS2B-NS3
  Protease inhibition rate, ZIKV: 22.62 ± 1.19
Sortase A (SrtA)
  Protease inhibition rate, SrtA: 20.39 ± 3.94
DENV2 NS2B-NS3
  Protease inhibition rate, DENV2: 18.47 ± 1.66%
Cathepsin L
  Protease inhibition rate, Cathepsin L: 58.30 ± 6.91%
S. aureus SG511
  inhibition zone, Sa1: 0 mm
SARS-CoV PLpro
  Protease inhibition rate, PLpro (SARS-CoV): 0 ± 0%
P. monteilii DSM1388
  inhibition zone, Pm: 0 mm
K. rhizophila DSM11926
  inhibition zone, Kr: 10 mm
SARS-CoV2 Mpro
  Protease inhibition rate, Mpro (SARS-CoV2): 6.92 ± 5.97%
[2]
  inhibition zone, Mv: 13p
S. aureus 134/94 (MRSA)
  inhibition zone, Sa2: 0 mm
E. coli SG458
  inhibition zone, Ec: 13P
B. subtilis 6633
  inhibition zone, Bs: 0 mm
[4]
  inhibition zone, Bt: 0 mm
Cathepsin B
  Protease inhibition rate, Cathepsin B: 57.57 ± 11.52%
C. albicans SC5314
  inhibition zone, Ca2: 0 mm
cruzain
  Protease inhibition rate, Cruzain: 60.52 ± 3.73%
B. licheniformis DSM13
  inhibition zone, Bl: 0 mm
E. faecalis 1528
  inhibition zone, Ef: 13p
rhodesain
  Protease inhibition rate, Rhodesain: 53.72 ± 0.31
C. albicans C.A.
  inhibition zone, Ca: 0 mm
Penicillium notatum JP36
  inhibition zone, Pn: 13p
[3]
  inhibition zone, Ss: 23p
Urokinase (uPA)
  Protease inhibition rate, uPA: 0 ± 0%
P. aeruginosa K799/61
  inhibition zone, Pa: 18P
